Test results from US11279737B2, “Antimicrobial peptide variants and uses thereof” (ANTINBIO, INC., priority 2019, dated 2022).
Values after ≈ are worked out from the molar mass of the structure shown. Where a SMILES comes first, the peptide text is derived from it. Bridges are numbered along the chain shown (N, C = ends).

Key:
[1] = test system: S. aureus ATCC 6538; assay: inhibition zone assay; details: 10 μg peptide per hole, 37° C., 16-18 hours
[2] = test system: C. acnes ATCC 11827
[3] = test system: L. rhamnosus ATCC 14957
[4] = test system: B. subtilis ATCC 6633
[5] = test system: E. coli ATCC 25922
[6] = test system: L. lactis ATCC 19256
[7] = test system: S. epidermidis ATCC 14990
[8] = test system: C. perfringens ATCC 13124
[9] = test system: S. salivarius ATCC 19258
[10] = test system: L. plantarum ATCC 14917
[11] = test system: L. casei ATCC 393
[12] = test system: B. longum ATCC 15707
[13] = test system: L. delbrueckii ATCC 9649
[14] = test system: human erythrocytes; assay: hemolytic assay; assay type: cell-based; details: peptide 0.5-500 μg/ml, 37° C., 60 minutes, FIG. 2
Protocol: For the hemolysis assays, human erythrocytes were obtained from healthy donors, washed 3 times using sterilized PBS and re-suspended to a concentration of 2% (v/v) with PBS. The hegrisin, HCN2016-01 peptide, and plectasin (control) were diluted to concentrations of 500, 250, 125, 62.5, 32, 16, 8, 4, 2, 1, and 0.5 μg/ml. A 100 μL solution of each peptide and a 100 μL suspension of red blood cells were mixed and added to the wells of a 96-well plate. PBS was used as negative control and Triton X-100 was used as a positive control.
The samples were incubated at 37° C. for 60 minutes and gently stirred during the incubation period. Then, the samples were centrifuged at 2000 rpm for 5 minutes. A total of 100 μL of the supernatant in each well was transferred to a new 96-well plate and absorbance was measured at 490 nm using a microplate reader (Molecular Devices, USA).
For hemolysis assays, human erythrocytes were obtained from healthy donors, washed 3 times using sterilized PBS, and re-suspended to a concentration of 2% (v/v) with PBS. The HCN2016-01 peptide (SEQ ID NO: 2) and plectasin (control) were diluted to concentrations of 500; 250; 125; 62.5; 32; 16; 8; 4; 2; 1; and 0.5 μg/ml. A 100 μL of each peptide solution was mixed with a 100 μL solution of a red blood cell suspension and added to separate wells of a 96-well plate. PBS was used as negative control and Triton X-100 was used as a positive control. The samples were incubated at 37° C. for 60 minutes and gently stirred during the incubation period. The samples were then centrifuged at 2000 rpm for 5 minutes. A total of 100 μL of the supernatant in each well was transferred to a new 96-well plate and absorbance was measured at 490 nm using a microplate reader (Molecular Devices, USA).

[15] = test system: S. aureus ATCC 6538
[16] = test system: S. aureus MRSA ATCC 43300

In the case of `CC[C@H](C)[C@@H]1NC(=O)CNC(=O)CNC(=O)[C@H](Cc2ccccc2)NC(=O)[C@H](CCCCN)NC(=O)[C@@H]2CSSC[C@H](NC(=O)[C@H](CO)NC(=O)[C@H](Cc3c[nH]c4ccccc34)NC(=O)CN)C(=O)N[C@@H](CC(N)=O)C(=O)N[C@@H]([C@@H](C)CC)C(=O)N[C@@H](Cc3c[nH]c4ccccc34)C(=O)N[C@@H](CC(N)=O)C(=O)NCC(=O)N[C@@H](CC(N)=O)C(=O)N[C@@H](CC(=O)O)C(=O)N[C@@H](CCC(=O)O)C(=O)N3CCC[C@H]3C(=O)N[C@H]3CSSC[C@H](NC1=O)C(=O)N[C@@H](CCCCN)C(=O)N[C@H](C(=O)N[C@@H](Cc1ccc(O)cc1)C(=O)O)CSSC[C@H](NC(=O)[C@H](Cc1c[nH]cn1)NC(=O)[C@H](CCC(N)=O)NC(=O)[C@H](Cc1c[nH]cn1)NC3=O)C(=O)N[C@@H](CCCCN)C(=O)N[C@@H](CO)C(=O)N[C@@H]([C@@H](C)CC)C(=O)N[C@@H](CCCNC(=N)N)C(=O)NCC(=O)N[C@@H](Cc1ccc(O)cc1)C(=O)N[C@@H](CCCNC(=N)N)C(=O)NCC(=O)NCC(=O)N[C@@H](Cc1ccc(O)cc1)C(=O)N2` [HCN2016-01] (H-GWSCNIWNGNDEPCHQHCKSIRGYRGGYCKFGGICKCY-OH; disulfide 4-29, 14-35, 18-37 (inferred); N-terminus and C-terminus assumed), the “Activity (antimicrobial activity relative to unmodified hegrisin, zones of growth inhibition)” value [1] is reported as 2, the “Minimal inhibitory concentration (MIC)” value ([2]; ATCC 11827) is reported as 8.0 µg/mL (≈ 1.85 µM) and the “activity against bacteria (in words)” value ([2]; C. acnes ATCC 11827) is reported as “strong activity”. For the same molecule, the “Minimal inhibitory concentration (MIC)” value [3] was 32.0 µg/mL (≈ 7.38 µM), the “Minimal inhibitory concentration (MIC)” value ([4]; ATCC 6633) was 0.50 µg/mL (≈ 0.115 µM) and the “activity against bacteria (in words)” value ([4]; B. subtilis ATCC 6633) was “strong activity”. For the same molecule, the “Minimal inhibitory concentration (MIC)” value ([5]; ATCC 25922) was over 500.0 µg/mL, the “activity against bacteria (in words)” value ([5]; Gram negative bacteria E. coli) was “minimal or no activity” and the “Minimal inhibitory concentration (MIC)” value [6] was 0.50 µg/mL (≈ 0.115 µM). The “Minimal inhibitory concentration (MIC)” value ([7]; ATCC 14990) was 0.31 µg/mL (≈ 0.0715 µM), the “activity against bacteria (in words)” value ([7]; S. epidermidis ATCC 14990) was “strong activity” and the “antimicrobial activity compared to wild type hegrisin (in words)” value ([7]; S. epidermidis ATCC 14990) was “improved antimicrobial activity”. The “activity against bacteria (in words)” value [8] was “strong activity”, the “Minimal inhibitory concentration (MIC)” value ([8]; ATCC 13124) was 6.81 µg/mL (≈ 1.57 µM) and the “Minimal inhibitory concentration (MIC)” value ([9]; ATCC 19258) was 4.0 µg/mL (≈ 0.923 µM). The “activity against bacteria (in words)” value ([9]; S. salivarius ATCC 19258) was “strong activity”, the “Minimal inhibitory concentration (MIC)” value [10] was 16.0 µg/mL (≈ 3.69 µM) and the “Minimal inhibitory concentration (MIC)” value [11] was over 500.0 µg/mL. For the same molecule, the “Minimal inhibitory concentration (MIC)” value ([12]; ATCC 15707) was 8.0 µg/mL (≈ 1.85 µM), the “activity against bacteria (in words)” value ([12]; B. longum ATCC 15707) was “strong activity” and the “Minimal inhibitory concentration (MIC)” value ([13]; ATCC 9649) was 8.0 µg/mL (≈ 1.85 µM). For the same molecule, the “activity against bacteria (in words)” value ([13]; L. delbrueckii ATCC 9649) was “strong activity”, the “cell lysis (hemolysis) of human erythrocytes” value [14] was “no significant lysis” and the “Minimal inhibitory concentration (MIC)” value ([15]; ATCC 6538) was 0.30 µg/mL (≈ 0.0692 µM). For the same molecule, the “activity against bacteria (in words)” value ([15]; S. aureus ATCC 6538) was “strong activity”, the “antimicrobial activity compared to wild type hegrisin (in words)” value ([15]; S. aureus ATCC 6538, lower MIC values) was “improved antimicrobial activity” and the “Minimal inhibitory concentration (MIC)” value ([16]; ATCC 43300) was 0.73 µg/mL (≈ 0.168 µM). The “activity against bacteria (in words)” value ([16]; S. aureus MRSA ATCC 43300) was “strong activity” and the “antimicrobial activity compared to wild type hegrisin (in words)” value ([16]; S. aureus MRSA ATCC 43300) was “improved antimicrobial activity”.
